Measured values as given in patent US20220174947A1, “ANTIMICROBIAL MIXTURE CONTAINING 4-(3-ETHOXY-4-HYDROXYPHENYL)BUTAN-2-ONE AND AN ALCOHOL COMPOUND, AND COSMETIC COMPOSITION CONTAINING SAME” (L'OREAL, priority 2018, published 2022).

Legend:
[1] = test system: Aspergillus niger ATCC 6275; assay: Synergistic antimicrobial activity as MIC, 96-well microplate, optical density at 620 nm; format: cell-based; settings: for % MIC of A alone: Aspergillus niger, growth <= 25%
Excerpt: FIC Index=(MIC of A with B/MIC of A)+(MIC of B with A/MIC of B [Math. 1]
with: • MIC of A with B: minimum concentration of product A in the combination A+B which makes it possible to obtain an inhibitory effect; • MIC of B with A: minimum concentration of product B in the combination A+B which makes it possible to obtain an inhibitory effect; • MIC of A: minimum inhibitory concentration of product A alone; • MIC of B: minimum inhibitory concentration of product B alone. This formula was described for the first time in the article by F. C. Kull, P. C. Eisman, H. D. Sylwestrowka, and R. L. Mayer, Applied Microbiology 9:538-541, 1961.
The microbial strain Aspergillus niger ATCC 6275, and a double-concentration Sabouraud broth liquid culture medium supplemented with polyoxyethylenated (20 OE) sorbitan monopalmitate (Tween 40 from Croda) and Phytagel© BioReagent were used (i.e. a mixture of 5 g of Phytagel+0.6 g of Tween 40+60 g of Sabouraud broth).
A 96-well microplate at an incubation temperature of 32.5° C. is used.
The incubation time of the microplate is: • from 24 to 30 h under aerobic conditions for microbial Aspergillus niger ATCC 6275; • from 18 to 24 h under aerobic conditions for Candida albicans ATCC 10231, Pseudomonas aeruginosa ATCC 9027 and Staphylococcus aureus ATCC 6538; • from 24 to 48 h under aerobic conditions for Enterococcus faecalis ATCC 33186.
For each compound: A=4-(3-ethoxy-4-hydroxyphenyl) butan-2-one compound B=alcohol compound A 10% (weight/volume) stock solution was prepared by mixing 1 g of compound in 9 ml of aqueous 1% agar solution. Successive dilutions were made with the 1% agar solution.
50 μl of each of the daughter solutions obtained containing compound A or B are added to the microplate wells. 100 μl of Sabouraud liquid nutrient broth inoculated at double concentration with the Aspergillus niger strain and 50 μl of aqueous 1% agar solution are also added thereto.
50 μl of each of the daughter solutions obtained containing compound A and 50 μl of each of the daughter solutions obtained containing compound B are added to the microplate wells. 100 μl of Sabouraud liquid nutrient broth inoculated at double concentration with the strain Aspergillus niger are also added thereto.
A positive microbial growth control was also prepared. The positive microbial growth control corresponds to a mixture of 100 μl of aqueous 1% agar solution with 100 μl of Sabouraud liquid nutrient broth inoculated at double concentration with the strain Aspergillus niger in the absence of compounds A and B.
An absorbance control was performed in parallel on compounds A and B alone. This control corresponds to 100 μl of double concentration sterile Sabouraud liquid nutrient broth+100 μl of double concentration compound A or B.
In the three cases (absorbance control, growth control and test), the final volume present in each of the microplate wells is 200 μl.
In the two cases (test and control), the inoculum represents the concentration of the Aspergillus niger strain present in the final volume of the wells (200 μl) and is between 2 and 6×10^5 cfu/ml of Aspergillus niger.

[2] = test system: Candida albicans ATCC 10231; assay: as above; format: cell-based; settings: for microbial growth percentage: 0 B5 weight %
Excerpt: with: • MIC of A with B: minimum concentration of product A in the combination A+B which makes it possible to obtain an inhibitory effect; • MIC of B with A: minimum concentration of product B in the combination A+B which makes it possible to obtain an inhibitory effect; • MIC of A: minimum inhibitory concentration of product A alone; • MIC of B: minimum inhibitory concentration of product B alone. This formula was described for the first time in the article by F. C. Kull, […], and R. L. Mayer, Applied Microbiology 9:538-541, 1961. […] When the FIC index value is less than or equal to 1, it is considered that the combination of test compounds has a synergistic effect. […] A 96-well microplate at an incubation temperature of 32.5° C. is used. […] For each compound: […] 50 μl of each of the daughter solutions obtained containing compound A and 50 μl of each of the daughter solutions obtained containing compound B are added to the microplate wells. 100 μl of Sabouraud liquid nutrient broth inoculated at double concentration with the strain Aspergillus niger are also added thereto. A positive microbial growth control was also prepared. […] An absorbance control was performed in parallel on compounds A and B alone. This control corresponds to 100 μl of double concentration sterile Sabouraud liquid nutrient broth+100 μl of double concentration compound A or B. […] The test as described above (tests, absorbance control and growth control) was performed again to test the combination A+B on the following strains Enterococcus faecalis, Staphylococcus aureus, Pseudomonas aeruginosa, Candida albicans, where appropriate.

% MIC of A alone ([1]; Example 1): 0.1% | % MIC of A alone ([1]; Example 3): 0.1% | % MIC of A alone ([1]; Example 5): 0.1% | % MIC of A alone ([2]; Candida albicans, Example 5, growth <= 25%): 0.2%
Structure (SMILES): CCOc1cc(CCC(C)=O)ccc1O [A, 4-(3-ethoxy-4-hydroxyphenyl)butan-2-one]
microbial growth percentage ([1]; 0.025 A, 0 B1 weight %): 82% | microbial growth percentage ([1]; 0.025 A, 0 B3 weight %): 45% | microbial growth percentage ([1]; 0.025 A, 0 B5 weight %): 55% | microbial growth percentage ([1]; 0.05 A, 0 B1 weight %): 43% | microbial growth percentage ([1]; 0.05 A, 0 B3 weight %): 35% | microbial growth percentage ([1]; 0.05 A, 0 B5 weight %): 32% | microbial growth percentage ([1]; 0.1 A, 0 B1 weight %): 5% | microbial growth percentage ([1]; 0.1 A, 0 B3 weight %): 14% | microbial growth percentage ([1]; 0.1 A, 0 B5 weight %): 16% | microbial growth percentage ([2]; 0.025 A): 69% | microbial growth percentage ([2]; 0.05 A): 54% | microbial growth percentage ([2]; 0.1 A): 27% | microbial growth percentage ([2]; 0.2 A): 4%
